Reference: patent publication US10308643B2, “Heterocyclic compound” (Takeda Pharmaceutical Company Limited, priority 2015, dated 2019)

Key:
Assay type in all cases: biochemical
HDAC6 enzyme = target: T1, HDAC6 enzyme (Homo sapiens, UniProt Q9UBN7); experiment: HDAC1/6 Enzyme Inhibitory Assay (HDAC-Glo I/II Assay kit), HDAC6; settings: 1 μM test compound, wells without enzyme = 100% inhibition; for inhibition at 1 µM: read-out: HDAC6 inhibitory rate (%) (1 μM)
T1 construct: transducing full length HDAC1 and HDAC6 genes into Sf-9 insect cells; GST; purchased SignalChem; host or cells: Sf-9 insect cells
T1 sequence (Q9UBN7 1-1215): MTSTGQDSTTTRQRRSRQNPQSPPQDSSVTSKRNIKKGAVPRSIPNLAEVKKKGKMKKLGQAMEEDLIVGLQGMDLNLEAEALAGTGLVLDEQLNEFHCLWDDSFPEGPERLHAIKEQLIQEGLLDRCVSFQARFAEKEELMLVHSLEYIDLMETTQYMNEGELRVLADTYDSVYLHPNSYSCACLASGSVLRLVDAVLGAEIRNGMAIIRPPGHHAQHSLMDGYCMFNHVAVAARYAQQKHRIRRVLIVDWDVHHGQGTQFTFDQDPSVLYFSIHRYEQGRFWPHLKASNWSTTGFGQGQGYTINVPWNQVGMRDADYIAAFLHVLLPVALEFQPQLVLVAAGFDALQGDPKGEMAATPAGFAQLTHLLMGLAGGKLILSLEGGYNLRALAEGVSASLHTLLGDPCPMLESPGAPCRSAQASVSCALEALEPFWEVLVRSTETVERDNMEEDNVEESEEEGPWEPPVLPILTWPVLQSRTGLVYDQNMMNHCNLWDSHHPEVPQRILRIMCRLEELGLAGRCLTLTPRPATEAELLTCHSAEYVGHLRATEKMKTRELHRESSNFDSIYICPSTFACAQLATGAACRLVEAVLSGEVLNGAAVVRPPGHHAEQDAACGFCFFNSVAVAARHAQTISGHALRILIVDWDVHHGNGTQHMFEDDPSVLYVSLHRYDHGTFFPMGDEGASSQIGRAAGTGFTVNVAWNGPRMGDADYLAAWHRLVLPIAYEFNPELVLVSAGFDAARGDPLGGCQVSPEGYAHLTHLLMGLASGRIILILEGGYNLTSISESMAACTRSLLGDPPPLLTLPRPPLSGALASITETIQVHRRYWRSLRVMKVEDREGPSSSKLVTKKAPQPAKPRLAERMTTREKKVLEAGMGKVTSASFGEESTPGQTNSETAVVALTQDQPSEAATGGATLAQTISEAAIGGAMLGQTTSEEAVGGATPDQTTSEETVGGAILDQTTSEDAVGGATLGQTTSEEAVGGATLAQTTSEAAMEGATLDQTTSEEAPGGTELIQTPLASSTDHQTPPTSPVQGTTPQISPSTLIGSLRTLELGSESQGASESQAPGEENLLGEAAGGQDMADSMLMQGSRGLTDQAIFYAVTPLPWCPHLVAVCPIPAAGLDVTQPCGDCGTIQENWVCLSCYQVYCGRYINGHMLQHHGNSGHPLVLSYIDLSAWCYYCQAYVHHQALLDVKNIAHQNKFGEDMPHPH
Procedure, shortened: (§1)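 Enzyme source: full-length HDAC1/HDAC6, Sf-9, GST-purified. Assay buffer 24 mM Tris-HCl (pH 7.5), 1 mM MgCl2, 0.35 mM KCl, 135 mM NaCl. Compound–enzyme 60 min RT, then HDAC-Glo reagent 20 min RT, luminescence; inhibition relative to no-enzyme control.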

HDAC1 enzyme = target: T2, HDAC1 enzyme (Homo sapiens, UniProt Q13547); experiment: HDAC1/6 Enzyme Inhibitory Assay (HDAC-Glo I/II Assay kit), HDAC1; settings: 1 μM test compound, wells without enzyme = 100% inhibition; for inhibition at 1 µM: read-out: HDAC1 inhibitory rate (%) (1 μM)
T2 construct: transducing full length HDAC1 and HDAC6 genes into Sf-9 insect cells; GST; purchased SignalChem; host or cells: Sf-9 insect cells
T2 sequence (Q13547 whole entry): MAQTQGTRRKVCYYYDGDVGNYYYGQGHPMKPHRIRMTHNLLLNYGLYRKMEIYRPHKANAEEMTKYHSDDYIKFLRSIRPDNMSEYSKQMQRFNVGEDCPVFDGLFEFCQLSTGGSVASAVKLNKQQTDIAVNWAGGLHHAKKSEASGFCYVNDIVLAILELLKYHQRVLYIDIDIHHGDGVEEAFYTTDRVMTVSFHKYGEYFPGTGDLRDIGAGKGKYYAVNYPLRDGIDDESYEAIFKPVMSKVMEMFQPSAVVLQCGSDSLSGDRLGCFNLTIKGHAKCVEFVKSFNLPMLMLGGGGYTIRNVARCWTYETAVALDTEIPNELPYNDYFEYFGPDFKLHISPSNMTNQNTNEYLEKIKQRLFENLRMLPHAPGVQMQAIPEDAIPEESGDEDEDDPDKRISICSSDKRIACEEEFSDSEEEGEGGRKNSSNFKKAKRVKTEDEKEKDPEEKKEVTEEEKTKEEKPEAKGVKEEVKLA
Procedure, shortened: as §1

HDAC9 enzyme = target: T3, HDAC9 enzyme (Homo sapiens, UniProt Q9UKV0); experiment: HDAC9 Enzyme Inhibitory Assay (HDAC-Glo class IIa); settings: 1 μM test compound, wells without enzyme = 100% inhibition; for inhibition at 1 µM: read-out: HDAC9 inhibitory rate (%) (1 μM)
T3 construct: transducing full length HDAC9 gene into Sf-9 insect cells; made in house; host or cells: Sf-9 insect cells
T3 sequence (Q9UKV0 whole entry, species assumed): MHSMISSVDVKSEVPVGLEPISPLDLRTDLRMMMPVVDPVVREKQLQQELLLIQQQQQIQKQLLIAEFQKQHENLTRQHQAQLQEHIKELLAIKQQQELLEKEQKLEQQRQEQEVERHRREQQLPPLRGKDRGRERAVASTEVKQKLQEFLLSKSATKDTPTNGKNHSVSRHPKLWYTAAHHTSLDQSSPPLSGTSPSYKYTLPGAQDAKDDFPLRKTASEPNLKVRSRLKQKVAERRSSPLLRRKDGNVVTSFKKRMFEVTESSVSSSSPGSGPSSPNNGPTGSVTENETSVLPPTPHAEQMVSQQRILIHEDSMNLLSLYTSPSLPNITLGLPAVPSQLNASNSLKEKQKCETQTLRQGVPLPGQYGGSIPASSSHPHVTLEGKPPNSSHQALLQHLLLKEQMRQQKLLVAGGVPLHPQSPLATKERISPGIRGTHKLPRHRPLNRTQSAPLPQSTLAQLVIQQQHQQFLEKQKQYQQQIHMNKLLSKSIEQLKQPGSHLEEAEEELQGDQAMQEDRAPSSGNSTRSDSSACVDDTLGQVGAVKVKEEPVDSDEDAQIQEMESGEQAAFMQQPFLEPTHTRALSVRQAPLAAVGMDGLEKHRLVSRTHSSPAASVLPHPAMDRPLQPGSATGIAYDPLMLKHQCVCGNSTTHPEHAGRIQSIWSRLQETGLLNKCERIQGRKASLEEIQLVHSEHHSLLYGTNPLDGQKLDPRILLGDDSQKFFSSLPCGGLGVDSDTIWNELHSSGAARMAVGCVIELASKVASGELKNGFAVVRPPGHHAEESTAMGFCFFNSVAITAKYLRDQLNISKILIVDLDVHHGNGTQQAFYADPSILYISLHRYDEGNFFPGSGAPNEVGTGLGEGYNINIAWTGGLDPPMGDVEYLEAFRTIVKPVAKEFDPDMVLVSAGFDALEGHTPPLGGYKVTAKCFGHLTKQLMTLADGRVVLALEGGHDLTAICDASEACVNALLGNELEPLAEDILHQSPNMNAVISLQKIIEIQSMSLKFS
Procedure, shortened: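 Luminescent HDAC-Glo class IIa readout after a 20 min room-temperature reaction; relative inhibition referenced to enzyme-free wells as 100%. Test compound first preincubated 60 min with Sf-9-expressed, Ni-NTA-purified full-length HDAC9 in pH 7.5 Tris buffer containing 135 mM NaCl, 0.6 mM glutathione and 0.01% Tween-20.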

Row | inhibition at 1 µM (HDAC6 enzyme) [%] | inhibition at 1 µM (HDAC1 enzyme) [%] | inhibition at 1 µM (HDAC9 enzyme) [%] | HDAC6 inhibitory rate (%) (1 μM) (HDAC6 enzyme) | HDAC1 inhibitory rate (%) (1 μM) (HDAC1 enzyme; 1 µM) | HDAC9 inhibitory rate (%) (1 μM) (HDAC9 enzyme; 1 µM) | Structure (SMILES)
1 | 31 | 13 | 38 |  |  |  | CC1(C(=O)N[C@H]2CCC[C@@H]2N2Cc3ccc(-c4noc(C(F)(F)F)n4)cc3C2=O)COC1 [Example 152, 3-methyl-N-((1S,2S)-2-(1-oxo-6-(5-(trifluoromethyl)-1,2,4-oxadiazol-3-yl)-1,3-dihydro-2H-isoindol-2-yl)cyclopentyl)oxetane-3-carboxamide]
2 | 89 | 3 | 78 |  |  |  | N[C@@H]1CCCC[C@H]1N1Cc2ccc(-c3noc(C(F)(F)F)n3)cc2C1=O [Example 28, 2-((1R,2R)-2-aminocyclohexyl)-6-[5-(trifluoromethyl)-1,2,4-oxadiazol-3-yl)isoindolin-1-one]
3 | 96 | 95 | 99 |  |  |  | COc1ccc([C@@H]2CNCC[C@H]2N2Cc3ccc(-c4noc(C(F)(F)F)n4)cc3C2=O)cc1 (relative stereo) [Example 55, 2-(trans-3-(4-methoxyphenyl)piperidin-4-yl)-6-(5-(trifluoromethyl)-1,2,4-oxadiazol-3-yl)isoindolin-1-one]
4 | 98 | 4 | 53 |  |  |  | O=C(N[C@@H]1CCOC[C@H]1N1Cc2ccc(-c3noc(C(F)(F)F)n3)cc2C1=O)[C@H]1CCOC1 [Example 208, (3S)-N-((3S,4R)-3-(1-oxo-6-(5-(trifluoromethyl)-1,2,4-oxadiazol-3-yl)-1,3-dihydro-2H-isoindol-2-yl)tetrahydro-2H-pyran-4-yl)tetrahydrofuran-3-carboxamide]
5 | 95 | 6 | 52 |  |  |  | O=C1c2cc(-c3noc(C(F)(F)F)n3)ccc2CN1[C@H]1CCc2ccccc21 [Example 24, 2-((1S)-2,3-dihydro-1H-inden-1-yl)-6-(5-(trifluoromethyl)-1,2,4-oxadiazol-3-yl)isoindolin-1-one]
6 | 100 | 5 | 42 |  |  |  | O=C1c2cc(-c3noc(C(F)(F)F)n3)ccc2CN1[C@@H]1CCCC[C@H]1NC(=O)C1(O)CCC1 [Example 173, 1-hydroxy-N-((1R,2R)-2-(1-oxo-6-(5-(trifluoromethyl)-1,2,4-oxadiazol-3-yl)-1,3-dihydro-2H-isoindol-2-yl)cyclohexyl) cyclobutanecarboxamide]
7 |  |  |  | 99 | 50 | 91 | O=C1c2cc(-c3noc(C(F)(F)F)n3)ccc2CN1[C@@H]1CCOC[C@H]1c1ccccc1 (relative stereo) [Example 35, trans-2-(3-phenyltetrahydro-2H-pyran-4-yl)-6-(5-(trifluoromethyl)-1,2,4-oxadiazol-3-yl)isoindolin-1-one]

Continued, compound first:

Row | Structure (SMILES) | inhibition at 1 µM (HDAC6 enzyme) [%] | inhibition at 1 µM (HDAC1 enzyme) [%] | inhibition at 1 µM (HDAC9 enzyme) [%] | HDAC6 inhibitory rate (%) (1 μM) (HDAC6 enzyme) | HDAC1 inhibitory rate (%) (1 μM) (HDAC1 enzyme; 1 µM) | HDAC9 inhibitory rate (%) (1 μM) (HDAC9 enzyme; 1 µM)
8 | O=C(N[C@H]1CCCC[C@@H]1N1Cc2ccc(-c3noc(C(F)(F)F)n3)cc2C1=O)[C@@H]1CCCO1 [Example 217, (2S)-N-((1S,2S)-2-(1-oxo-6-(5-(trifluoromethyl)-1,2,4-oxadiazol-3-yl)-1,3-dihydro-2H-isoindol-2-yl)cyclohexyl)tetrahydrofuran-2-carboxamide] | 82 | 21 | 53 |  |  | 
9 | NC(=O)N1CC[C@@H](N2Cc3ccc(-c4noc(C(F)(F)F)n4)cc3C2=O)[C@H](c2ccccc2)C1 [Example 43, (3R,4R)-4-(1-oxo-6-(5-(trifluoromethyl)-1,2,4-oxadiazol-3-yl)-1,3-dihydro-2H-isoindol-2-yl)-3-phenylpiperidine-1-carboxamide] | 99 | 90 | 96 |  |  | 
10 | O=C1c2cc(-c3noc(C(F)(F)F)n3)ccc2CN1[C@H]1CCNC[C@H]1c1ccccc1 [Example 16, 2-((3R,4S)-3-phenylpiperidin-4-yl)-6-(5-(trifluoromethyl)-1,2,4-oxadiazol-3-yl)isoindolin-1-one] | 98 | 49 | 87 |  |  | 
11 | CCNC(=O)N1CC[C@@H](N2Cc3ccc(-c4noc(C(F)(F)F)n4)cc3C2=O)[C@H](c2ccccc2)C1 [Example 44, (3R,4R)-N-ethyl-4-(1-oxo-6-(5-(trifluoromethyl)-1,2,4-oxadiazol-3-yl)-1,3-dihydro-2H-isoindol-2-yl)-3-phenylpiperidine-1-carboxamide] | 98 | 88 | 95 |  |  | 
12 | O=C(N[C@@H]1CCCC[C@H]1N1Cc2ncc(-c3noc(C(F)(F)F)n3)cc2C1=O)C1CC1 [Example 84, N-((1R,2R)-2-(5-oxo-3-(5-(trifluoromethyl)-1,2,4-oxadiazol-3-yl)-5,7-dihydro-6H-pyrrolo[3,4-b]pyridin-6-yl)cyclohexyl) cyclopropanecarboxamide] | 102 | 18 | 85 |  |  | 
13 | O=C1NCC(C(=O)N[C@@H]2CCCC[C@H]2N2Cc3ccc(-c4noc(C(F)(F)F)n4)cc3C2=O)N1 (stereo partly drawn) [Example 109, 2-oxo-N-((1R,2R)-2-(1-oxo-6-(5-(trifluoromethyl)-1,2,4-oxadiazol-3-yl)-1,3-dihydro-2H-isoindol-2-yl)cyclohexyl)imidazolidine-4-carboxamide] | 71 | -2 | 19 |  |  | 
14 | O=C1CCCN1[C@H]1COCC[C@@H]1N1Cc2ccc(-c3noc(C(F)(F)F)n3)cc2C1=O [Example 181, 2-((3R,4S)-3-(2-oxopyrrolidin-1-yl)tetrahydro-2H-pyran-4-yl)-6-(5-(trifluoromethyl)-1,2,4-oxadiazol-3-yl)isoindolin-1-one] | 74 | 2 | 41 |  |  | 
15 | CC1(C(=O)N[C@@H]2CCOC[C@H]2N2Cc3ccc(-c4noc(C(F)(F)F)n4)cc3C2=O)COC1 [Example 192, 3-methyl-N-((3S,4R)-3-(1-oxo-6-(5-(trifluoromethyl)-1,2,4-oxadiazol-3-yl)-1,3-dihydro-2H-isoindol-2-yl)tetrahydro-2H-pyran-4-yl)oxetane-3-carboxamide] | 99 | 6 | 40 |  |  | 
16 | O=C(N[C@@H]1CCCC[C@H]1N1Cc2ccc(-c3noc(C(F)(F)F)n3)cc2C1=O)N1CCS(=O)(=O)CC1 [Example 168, N-((1R,2R)-2-(1-oxo-6-(5-(trifluoromethyl)-1,2,4-oxadiazol-3-yl)-1,3-dihydro-2H-isoindol-2-yl)cyclohexyl)thiomorpholine-4-carboxamide 1,1-dioxide] | 96 | 5 | 23 |  |  | 
17 | CC(C)(C)OC(=O)N1CC[C@@H](N2Cc3ccc(-c4noc(C(F)(F)F)n4)cc3C2=O)[C@@H](c2ccccc2)C1 [Example 19, tert-butyl (3S,4R)-4-(1-oxo-6-(5-(trifluoromethyl)-1,2,4-oxadiazol-3-yl)-1,3-dihydro-2H-isoindol-2-yl)-3-phenylpiperidine-1-carboxylate] | 99 | 18 | 48 |  |  | 
18 | CC(=O)N1CC[C@H](N2Cc3cc(-c4noc(C(F)(F)F)n4)ccc3C2=O)[C@H](c2ccccc2)C1 (relative stereo) [Example 80, cis-2-(1-acetyl-3-phenylpiperidin-4-yl)-5-(5-(trifluoromethyl)-1,2,4-oxadiazol-3-yl)isoindolin-1-one] | 76 | 13 | 97 |  |  | 
